Data set [1] can be described thus: Chemical stability of compound in HCL solution at pH 1 assessed as half life by UPLC analysis. The format is physicochemical.
A short description of data set [2]: Chemical stability of compound in sodium phosphate buffer at pH 7.4 assessed as half life by UPLC analysis. The format is physicochemical.
Data set [3] can be described thus: Chemical stability of compound in sodium carbonate buffer at pH 10 assessed as half life by UPLC analysis. The format is physicochemical.
Data set [4] is described as follows: Metabolic stability in human hepatocytes assessed as intrinsic clearance at 1 uM measured per 10^6 cells incubated at 2 to 60 mins by LC-MS/MS analysis. The format is ADME, cell-based, Hepatocyte. The following applies: time 2-60 min, read-out: CLH.
Data set [5] in a line: Metabolic stability in rat hepatocytes assessed as intrinsic clearance at 1 uM measured per 10^6 cells incubated at 2 to 60 mins by LC-MS/MS analysis. It is filed as ADME, cell-based, Hepatocyte. The following applies: time 2-60 min, read-out: CLH.
The nature of data set [6]: Plasma protein binding in human assessed as unbound fraction. It is filed as ADME, cell-free.
Data set [7] addresses T1, Protein deacetylase HDAC6 (Mus musculus, UniProt Q9Z2V5).
T1 sequence (Q9Z2V5 whole entry): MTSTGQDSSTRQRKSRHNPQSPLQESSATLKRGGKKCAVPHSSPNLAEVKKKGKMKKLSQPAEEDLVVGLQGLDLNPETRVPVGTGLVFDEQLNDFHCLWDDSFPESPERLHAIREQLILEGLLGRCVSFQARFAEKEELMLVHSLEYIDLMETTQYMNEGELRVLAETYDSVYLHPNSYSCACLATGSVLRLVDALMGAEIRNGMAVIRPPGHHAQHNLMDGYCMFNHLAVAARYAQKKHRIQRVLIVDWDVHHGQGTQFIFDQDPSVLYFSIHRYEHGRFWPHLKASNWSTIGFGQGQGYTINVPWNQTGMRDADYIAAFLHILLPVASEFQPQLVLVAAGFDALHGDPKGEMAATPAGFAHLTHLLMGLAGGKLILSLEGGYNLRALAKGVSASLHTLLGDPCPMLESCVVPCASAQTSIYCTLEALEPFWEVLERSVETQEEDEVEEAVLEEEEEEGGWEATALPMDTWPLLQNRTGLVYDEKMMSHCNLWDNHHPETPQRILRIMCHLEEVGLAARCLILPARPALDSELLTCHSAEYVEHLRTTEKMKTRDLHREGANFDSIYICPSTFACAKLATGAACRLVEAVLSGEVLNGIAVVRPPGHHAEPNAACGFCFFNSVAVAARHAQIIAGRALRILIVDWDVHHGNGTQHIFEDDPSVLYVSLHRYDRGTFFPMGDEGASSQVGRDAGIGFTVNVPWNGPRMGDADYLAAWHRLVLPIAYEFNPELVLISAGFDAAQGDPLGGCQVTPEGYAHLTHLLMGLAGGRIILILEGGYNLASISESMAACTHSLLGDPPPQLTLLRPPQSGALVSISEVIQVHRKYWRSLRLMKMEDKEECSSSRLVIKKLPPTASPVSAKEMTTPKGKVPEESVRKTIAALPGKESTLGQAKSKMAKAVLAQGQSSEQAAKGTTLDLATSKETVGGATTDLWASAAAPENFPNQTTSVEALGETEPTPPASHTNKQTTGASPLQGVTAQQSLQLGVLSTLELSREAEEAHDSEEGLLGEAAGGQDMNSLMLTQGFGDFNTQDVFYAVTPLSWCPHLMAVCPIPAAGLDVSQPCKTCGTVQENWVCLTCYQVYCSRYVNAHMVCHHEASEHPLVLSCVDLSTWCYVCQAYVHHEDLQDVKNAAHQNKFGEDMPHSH
Briefly: Inhibition of HDAC6 in mouse LA-4 cells assessed as deacetylation of acetylated alpha-tubulin level incubated for 24 hrs by Western blot analysis. The format is cell-based. In general terms: In western blotting, separated proteins are transferred to a membrane and probed.

Data set [8] in a line: Clearance in C57/BI mouse at 2 mg/kg, iv measured upto 24 hrs by LC-MS/MS analysis. The following applies: in vivo. It is filed as ADME, organism-based.
Data set [9] can be described thus: Clearance in Wistar Han rat at 0.5 mg/kg, iv measured upto 24 hrs by LC-MS/MS analysis. The following applies: in vivo. The format is ADME, organism-based.
Data set [10] in a line: AUC (0 to infinity) in C57/BI mouse at 10 mg/kg, po measured upto 24 hrs by LC-MS/MS analysis. Details: time < 24 hrs, dose 10 mg/kg, route po. The format is ADME, organism-based. To be noted: in vivo.
Data set [11] in a line: Half life in Wistar Han rat at 0.5 mg/kg, iv measured upto 24 hrs by LC-MS/MS analysis. It is filed as ADME, organism-based. The following applies: in vivo.
The nature of data set [12]: Oral bioavailability in Wistar Han rat at 10 mg/kg measured upto 24 hrs by LC-MS/MS analysis. To be noted: in vivo. It is filed as ADME, organism-based.
Data set [13] can be described thus: Volume of distribution at steady state in Wistar Han rat at 1 mg/kg, po or 0.5 mg/kg, iv measured upto 24 hrs by LC-MS/MS analysis. It is filed as ADME, organism-based. To be noted: in vivo.
The next data set concerns THP-1. Briefly: Cytotoxicity against human THP-1 cells assessed as reduction in cell viability measured upto 250 uM by alamar blue staining based assay. The format is functional. (In general: Alamar Blue is a resazurin reagent that responds to reducing activity.)
A short description of data set [14]: Plasma protein binding in mouse assessed as unbound fraction. It is filed as ADME, cell-free.

The source made the active and inactive calls. The rule behind the calls is not given here.

Data on 3 compounds can be found in ChEMBL document CHEMBL5370608, “Selective and Bioavailable HDAC6 2-(Difluoromethyl)-1,3,4-oxadiazole Substrate Inhibitors and Modeling of Their Bioactivation Mechanism” (J Med Chem, 2023).

A word on the half-life: it is the time in which the quantity being followed falls by half. For `CS(=O)(=O)NCC(Nc1ncc(-c2nnc(C(F)F)o2)cn1)c1ccc(OC(F)(F)F)cc1` (stereo not given), the half-life was 11.8 h in data set [1], 221 h in [2] and 7.2 h in data set [3].
Broadly, the fraction unbound is the share of the substance not bound to proteins or other matrix. As a reminder, the IC50 is the concentration that inhibits the measured activity by half. For orientation: clearance means the volume of plasma or blood freed of the substance per unit of time. For orientation: AUC(0-inf) means total exposure, with the tail of the curve extrapolated. Higher therefore signals more exposure. As a reminder, the bioavailability is the share of a dose that reaches the circulation, judged against a reference dose that is usually intravenous. As for `O=C(NO)c1cnc(NC2(c3ccccc3)CCC(F)(F)CC2)nc1`, the hepatocyte CLint at 1 µM in [4] was determined as 5.1 µL/min/1e6 cells; in data set [5] it was 51 µL/min/1e6 cells. Further, the unbound share (fraction unbound) in data set [6] came to 0.23. Moreover, the IC50 in [7] is 398 nM. Also, the clearance in data set [8] worked out at 140 mL/min/kg; in data set [9], 180 mL/min/kg. In data set [10], this compound came in with an AUC(0-inf) of 0.4 µM·h. Moreover, the half-life in data set [11] is 0.3 h. For the same compound, the bioavailability in data set [12] was 19%. Moreover, the Vdss in data set [13] came out at 2.2 L/kg.
Take `FC(F)c1nnc(-c2ccc(Cn3nnc(-c4ccccn4)n3)nc2)o1`: in the data set on THP-1, the outcome was inactive. For the same compound, the hepatocyte CLint at 1 µM in data set [4] and in [5] was below 1 µL/min/1e6 cells throughout. Also, the figures for the unbound share (fraction unbound) in [6] and in data set [14] were 0.13 and 0.27, respectively. The half-inhibitory concentration (IC50) in data set [7] was 1000 nM. In addition, the clearance in [9] was 3.2 mL/min/kg. For the same compound, the half-life was 7.3 h in data set [11], 7.68 h in [1], 84 h in data set [2] and below 13.7 h in data set [3]. The Vdss in [13] turned out to be 1.8 L/kg.
